Patent US12564638B2 (SHANGHAITECH UNIVERSITY, priority 2019, dated 2026)

System: HCC827 cells (EGFR Exon19 del, non-small cell lung cancer cells)
Experiment: Cell viability assay (WST/CCK8), HCC827 cells
Format: cell-based
Conditions: Homo sapiens, HCC827, 72 h, HCC827 (Exon19 Del), 72 hours, WST (CCK8); read-out: IC50 (half inhibitory concentration)
Procedure, shortened: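 Cells seeded at 3 000/well in RPMI1640 complete medium, dosed next day with compounds (top 10 μM, 3-fold, 10 points) for 72 h. Viability read with WST (CCK8) reagent; DMSO as negative control, EGFR TKIs as positive controls; IC50 determined.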

Row | Compound | IC50
1 | COc1cc2ncnc(Nc3ccc(F)c(Cl)c3)c2cc1NC(=O)/C=C/CN1CCC(NC(=O)CSc2cccc3c2CN(C2CCC(=O)NC2=O)C3=O)CC1 (centres unmarked) [SIAIS262110, (E)-N-(4-((3-chloro-4-fluorophenyl)amino)-7-methoxyquinazolin-6-yl)-4-(4-(2-((2-(2,6-dioxopiperidin-3-yl)-1-oxoisoindolin-4-yl)thio)acetamido)piperidin-1-yl)but-2-enamide] | 20 nM
2 | COc1cc2ncnc(Nc3ccc(F)c(Cl)c3)c2cc1NC(=O)/C=C/CN1CCC(N2CCN(CCCCCCCCCCSc3cccc4c3CN(C3CCC(=O)NC3=O)C4=O)CC2)CC1 (centres unmarked) [SIAIS337039, (E)-N-(4-((3-chloro-4-fluorophenyl)amino)-7-methoxyquinazolin-6-yl)-4-(4-(4-(10-((2-(2,6-dioxopiperidin-3-yl)-1-oxoisoindolin-4-yl)thio)decyl)piperazin-1-yl)piperidin-1-yl)but-2-enamide] | 5.7 nM
3 | COc1cc2ncnc(Nc3ccc(F)c(Cl)c3)c2cc1NC(=O)/C=C/CN1CCC(N2CCN(C(=O)CCCCCCCCCCSc3cccc4c3CN(C3CCC(=O)NC3=O)C4=O)CC2)CC1 (centres unmarked) [SIAIS337038, (E)-N-(4-((3-chloro-4-fluorophenyl)amino)-7-methoxyquinazolin-6-yl)-4-(4-(4-(11-((2-(2,6-dioxopiperidin-3-yl)-1-oxoisoindolin-4-yl)thio)undecanoyl)piperazin-1-yl)piperidin-1-yl)but-2-enamide] | 0.3 nM
4 | COc1cc2ncnc(Nc3ccc(F)c(Cl)c3)c2cc1NC(=O)/C=C/CN1CCN(C(=O)COCCOCCOCCOCCSc2cccc3c2CN(C2CCC(=O)NC2=O)C3=O)CC1 (centres unmarked) [SIAIS262003, (E)-N-(4-((3-chloro-4-fluorophenyl)amino)-7-methoxyquinazolin-6-yl)-4-(4-(14-((2-(2,6-dioxopiperidin-3-yl)-1-oxoisoindolin-4-yl)thio)-3,6,9,12-tetraoxatetradecan-1-oyl)piperazin-1-yl)but-2-enamide] | 104 nM
5 | COc1cc2ncnc(Nc3ccc(F)c(Cl)c3)c2cc1NC(=O)/C=C/CN1CCN(C(=O)CCOCCOCCOCCNc2cccc3c2C(=O)N(C2CCC(=O)NC2=O)C3=O)CC1 (centres unmarked) [SIAIS249047, (E)-N-(4-((3-chloro-4-fluorophenyl)amino)-7-methoxyquinazolin-6-yl)-4-(4-(3-(2-(2-(2-((2-(2,6-dioxopiperidin-3-yl)-1,3-dioxoisoindolin-4-yl)amino)ethoxy)ethoxy)ethoxy)propanoyl)piperazin-1-yl)but-2-enamide] | 23.6 nM
6 | COc1cc2ncnc(Nc3ccc(F)c(Cl)c3)c2cc1NC(=O)/C=C/CN1CCN(C(=O)CCCCC(=O)N[C@H](C(=O)N2C[C@H](O)C[C@H]2C(=O)NCc2ccc(-c3scnc3C)cc2)C(C)(C)C)CC1 [SIAIS249042, (2S,4R)-1-((S)-2-(6-(4-((E)-4-((4-((3-chloro-4-fluorophenyl)amino)-7-methoxyquinazolin-6-yl)amino)-4-oxobut-2-en-1-yl)piperazin-1-yl)-6-oxohexanamido)-3,3-dimethylbutanoyl)-4-hydroxy-N-(4-(4-methylthiazol-5-yl)benzyl)pyrrolidine-2-carboxamide] | 31.3 nM

Same assay, conditions: Homo sapiens, HCC827, 72 h, Table 3, poziotinib-based compounds; HCC827 (Exon19 Del); 72 hours; WST (CCK8); read-out: IC50 (half inhibitory concentration)

Row | Compound | IC50
7 | COc1cc2ncnc(Nc3ccc(Cl)c(Cl)c3F)c2cc1OC1CCN(C(=O)CCOCCOCCNc2cccc3c2C(=O)N(C2CCC(=O)NC2=O)C3=O)CC1 (centres unmarked) [SIAIS249030, 4-((2-(2-(3-(4-((4-((3,4-dichloro-2-fluorophenyl)amino)-7-methoxyquinazolin-6-yl)oxy)piperidin-1-yl)-3-oxopropoxy)ethoxy)ethyl)amino)-2-(2,6-dioxopiperidin-3-yl)isoindoline-1,3-dione] | 6.3 nM
8 | COc1cc2ncnc(Nc3ccc(Cl)c(Cl)c3F)c2cc1OC1CCN(C(=O)CCOCCOCCOCCC(=O)N[C@H](C(=O)N2C[C@H](O)C[C@H]2C(=O)NCc2ccc(-c3scnc3C)cc2)C(C)(C)C)CC1 [SIAIS249026, (2S,4R)-1-((S)-2-(tert-butyl)-16-(4-((4-((3,4-dichloro-2-fluorophenyl)amino)-7-methoxyquinazolin-6-yl)oxy)piperidin-1-yl)-4,16-dioxo-7,10,13-trioxa-3-azahexadecan-1-oyl)-4-hydroxy-N-(4-(4-methylthiazol-5-yl)benzyl)pyrrolidine-2-carboxamide] | 266 nM
9 | COc1cc2ncnc(Nc3ccc(Cl)c(Cl)c3F)c2cc1OC1CCN(C(=O)CCCCC(=O)N[C@H](C(=O)N2C[C@H](O)C[C@H]2C(=O)NCc2ccc(-c3scnc3C)cc2)C(C)(C)C)CC1 [SIAIS249021, (2S,4R)-1-((S)-2-(6-(4-((4-((3,4-dichloro-2-fluorophenyl)amino)-7-methoxyquinazolin-6-yl)oxy)piperidin-1-yl)-6-oxohexanamido)-3,3-dimethylbutanoyl)-4-hydroxy-N-(4-(4-methylthiazol-5-yl)benzyl)pyrrolidine-2-carboxamide] | 75.4 nM

Same assay, conditions: Homo sapiens, HCC827, 72 h, Table 4, gefitinib and sapitinib-based compounds; HCC827 (Exon19 Del); 72 hours; WST; read-out: IC50 (half inhibitory concentration)

Row | Compound | IC50
10 | COc1cc2ncnc(Nc3ccc(F)c(Cl)c3)c2cc1OCCCN1CCN(C(=O)COCCOCCOCCOCCOCCSc2cccc3c2C(=O)N(C2CCC(=O)NC2=O)C3=O)CC1 (centres unmarked) [SIAIS184170, 4-((17-(4-(3-((4-((3-chloro-4-fluorophenyl)amino)-7-methoxyquinazolin-6-yl)oxy)propyl)piperazin-1-yl)-17-oxo-3,6,9,12,15-pentaoxaheptadecyl)thio)-2-(2,6-dioxopiperidin-3-yl)isoindoline-1,3-dione] | 186 nM
11 | COc1cc2ncnc(Nc3ccc(F)c(Cl)c3)c2cc1OC1CCN(CC(=O)NCCCSc2cccc3c2CN(C2CCC(=O)NC2=O)C3=O)CC1 (centres unmarked) [SIAIS293048, 2-(4-((4-((3-chloro-4-fluorophenyl)amino)-7-methoxyquinazolin-6-yl)oxy)piperidin-1-yl)-N-(3-((2-(2,6-dioxopiperidin-3-yl)-1-oxoisoindolin-4-yl)thio)propyl)acetamide] | 23 nM
12 | COc1cc2ncnc(Nc3ccc(F)c(Cl)c3)c2cc1OC1CCN(CC(=O)NCCCCCCCSc2cccc3c2CN(C2CCC(=O)NC2=O)C3=O)CC1 (centres unmarked) [SIAIS293051, 2-(4-((4-((3-chloro-4-fluorophenyl)amino)-7-methoxyquinazolin-6-yl)oxy)piperidin-1-yl)-N-(7-((2-(2,6-dioxopiperidin-3-yl)-1-oxoisoindolin-4-yl)thio)heptyl)acetamide] | 6.5 nM
13 | COc1cc2ncnc(Nc3ccc(F)c(Cl)c3)c2cc1OC1CCN(CC(=O)NCCCCCCSc2cccc3c2CN(C2CCC(=O)NC2=O)C3=O)CC1 (centres unmarked) [SIAIS293050, 2-(4-((4-((3-chloro-4-fluorophenyl)amino)-7-methoxyquinazolin-6-yl)oxy)piperidin-1-yl)-N-(6-((2-(2,6-dioxopiperidin-3-yl)-1-oxoisoindolin-4-yl)thio)hexyl)acetamide] | 1.5 nM

Same assay, conditions: Homo sapiens, HCC827, 72 h, Table 5, afatinib-based compounds; HCC827 (Exon19 Del); 72 hours; WST; read-out: IC50 (half inhibitory concentration)

Row | Compound | IC50
14 | O=C1CCC(N2C(=O)c3cccc(SCCOCCOCCOCC(=O)Nc4cc5c(Nc6ccc(F)c(Cl)c6)ncnc5cc4O[C@H]4CCOC4)c3C2=O)C(=O)N1 (stereo partly drawn) [SIAIS184154, N-(4-((3-chloro-4-fluorophenyl)amino)-7-(((S)-tetrahydrofuran-3-yl)oxy)quinazolin-6-yl)-2-(2-(2-(2-((2-(2,6-dioxopiperidin-3-yl)-1,3-dioxoisoindolin-4-yl)thio)ethoxy)ethoxy)ethoxy)acetamide] | 250 nM
15 | O=C1CCC(N2Cc3c(SCCC(=O)Nc4cc5c(Nc6ccc(F)c(Cl)c6)ncnc5cc4O[C@H]4CCOC4)cccc3C2=O)C(=O)N1 (stereo partly drawn) [SIAIS1210085, N-(4-((3-chloro-4-fluorophenyl)amino)-7-(((S)-tetrahydrofuran-3-yl)oxy)quinazolin-6-yl)-3-((2-(2,6-dioxopiperidin-3-yl)-1-oxoisoindolin-4-yl)thio)propanamide] | 481 nM
16 | O=C1CCC(N2Cc3c(SCCCCCC(=O)Nc4cc5c(Nc6ccc(F)c(Cl)c6)ncnc5cc4O[C@H]4CCOC4)cccc3C2=O)C(=O)N1 (stereo partly drawn) [SIAIS1210089, N-(4-((3-chloro-4-fluorophenyl)amino)-7-(((S)-tetrahydrofuran-3-yl)oxy)quinazolin-6-yl)-6-((2-(2,6-dioxopiperidin-3-yl)-1-oxoisoindolin-4-yl)thio)hexanamide] | 160 nM

Same assay, conditions: Homo sapiens, HCC827, 72 h, Table 8, osimertinib-based compounds; HCC827; 72 hours; WST; read-out: IC50 (half inhibitory concentration)

Row | Compound | IC50
17 | C=CC(=O)Nc1cc(Nc2nccc(-c3cn(C)c4ccccc34)n2)c(OC)cc1N(C)CCN(C)C(=O)COCCOCCSc1cccc2c1CN(C1CCC(=O)NC1=O)C2=O (centres unmarked) [SIAIS337075, N-(2-((2-(2-(2-(2-((2-(2,6-dioxopiperidin-3-yl)-1-oxoisoindolin-4-yl)thio)ethoxy)ethoxy)-N-methylacetamido)ethyl)(methyl)amino)-4-methoxy-5-((4-(1-methyl-1H-indol-3-yl)pyrimidin-2-yl)amino)phenyl)acrylamide] | 170 nM

System: PC9 cells (EGFR Exon 19 del, non-small cell lung cancer cells)
Experiment: Cell viability assay (WST/CCK8), PC9 cells
Format: cell-based
Conditions: Homo sapiens, PC-9; PC9 (Exon19 Del), 72 hours, WST (CCK8); read-out: IC50 (half inhibitory concentration)
Description: The cell lines with abnormal EGFR expression used are as follows: • HCC827 cells (EGFR Exon19 del, non-small cell lung cancer cells); • PC9 cells (EGFR Exon 19 del, non-small cell lung cancer cells); • PC9BracA1 (EGFR Exon 19 del+T790M, non-small cell lung cancer cells) • H1975 (EGFR Exon T790M+L858R mutation, non-small cell lung cancer cell line) • BT474 cells (HER2 positive breast cancer cells)
All of the half inhibitory concentrations (IC50) of these compounds of the present invention were determined with WST reagent from Fuyuan Biotec Company. The specific experiment procedures are as follows: Cancer cells were planted in 96-well-plate at the density of 3 000 cells per well with 100 μL RPMI1640 completed culture medium. In the next day, compounds with indicated concentrations were added to the cells, DMSO was used as the negative control and the EGFR TKIs were used to treat cells as the positive groups. After 72 hours drug treatment, cell viability was measured by using the WST reagent following the instructions.
The cells were treated with the gradient concentration of these compounds (the maximum concentration: 10 μM; 3-fold dilution ratio, 10 concentration gradients) for 72 hours and then incubated with the WST (CCK8) reagent to determine the cell viability.

Row | Compound | IC50
18 | COc1cc2ncnc(Nc3ccc(F)c(Cl)c3)c2cc1NC(=O)/C=C/CN1CCC(NC(=O)CSc2cccc3c2CN(C2CCC(=O)NC2=O)C3=O)CC1 (centres unmarked) [SIAIS262110, (E)-N-(4-((3-chloro-4-fluorophenyl)amino)-7-methoxyquinazolin-6-yl)-4-(4-(2-((2-(2,6-dioxopiperidin-3-yl)-1-oxoisoindolin-4-yl)thio)acetamido)piperidin-1-yl)but-2-enamide] | 73 nM
19 | COc1cc2ncnc(Nc3ccc(F)c(Cl)c3)c2cc1NC(=O)/C=C/CN1CCC(N2CCN(CCCCCCCCCCSc3cccc4c3CN(C3CCC(=O)NC3=O)C4=O)CC2)CC1 (centres unmarked) [SIAIS337039, (E)-N-(4-((3-chloro-4-fluorophenyl)amino)-7-methoxyquinazolin-6-yl)-4-(4-(4-(10-((2-(2,6-dioxopiperidin-3-yl)-1-oxoisoindolin-4-yl)thio)decyl)piperazin-1-yl)piperidin-1-yl)but-2-enamide] | 19.7 nM
20 | COc1cc2ncnc(Nc3ccc(F)c(Cl)c3)c2cc1NC(=O)/C=C/CN1CCC(N2CCN(C(=O)CCCCCCCCCCSc3cccc4c3CN(C3CCC(=O)NC3=O)C4=O)CC2)CC1 (centres unmarked) [SIAIS337038, (E)-N-(4-((3-chloro-4-fluorophenyl)amino)-7-methoxyquinazolin-6-yl)-4-(4-(4-(11-((2-(2,6-dioxopiperidin-3-yl)-1-oxoisoindolin-4-yl)thio)undecanoyl)piperazin-1-yl)piperidin-1-yl)but-2-enamide] | 1.6 nM
